Experimental findings from US7807701B2, “Dibenzylamine compounds and pharmaceutical use thereof” (Japan Tobacco Inc., priority 2002, dated 2010) are described below.

Counter-ions that a name gives are not always drawn.

This experiment deals with T1, CETP (Homo sapiens, UniProt P11597).
T1 construct: The donor lipoprotein obtained above was added to plasma of healthy subject; from tissue; host or cells: whole plasma of healthy subject
T1 sequence (P11597 18-493): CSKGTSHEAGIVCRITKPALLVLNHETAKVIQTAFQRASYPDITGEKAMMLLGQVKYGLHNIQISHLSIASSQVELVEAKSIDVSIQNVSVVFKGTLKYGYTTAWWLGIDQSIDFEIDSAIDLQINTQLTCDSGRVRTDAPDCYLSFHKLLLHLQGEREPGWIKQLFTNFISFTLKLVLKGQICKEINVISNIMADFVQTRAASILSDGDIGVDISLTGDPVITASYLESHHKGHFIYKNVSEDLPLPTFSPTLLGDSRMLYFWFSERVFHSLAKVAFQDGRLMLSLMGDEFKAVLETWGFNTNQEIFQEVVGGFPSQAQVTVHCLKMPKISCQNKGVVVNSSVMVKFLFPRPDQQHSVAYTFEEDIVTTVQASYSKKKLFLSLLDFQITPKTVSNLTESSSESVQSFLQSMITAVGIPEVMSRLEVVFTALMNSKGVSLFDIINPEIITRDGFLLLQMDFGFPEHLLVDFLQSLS
Description: Inhibitory effect in vitro on CETP activity in total plasma. Type of experiment: biochemical. The following applies: plasma of healthy subject with [3H]CE-HDL3, 37° C., 4 hr; average values. The essentials:
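Healthy-donor plasma spiked with [3H]cholesteryl ester-labelled HDL3 (1,000 dpm/μL) was incubated with compound (DMF vehicle) for 4 hr at 37 °C or 4 °C. HDL was separated by MgCl2/dextran sulfate precipitation and supernatant radioactivity counted. IC50 is the concentration giving 50% inhibition of CETP activity.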
In general, IC50 refers to the point on the concentration scale where inhibition reaches its midpoint. Turning to `CCN(CC1CCCC1)c1cc2c(cc1CN(Cc1cc(C(F)(F)F)cc(C(F)(F)F)c1)c1cnn(C)c1)CCC2` [Example 28, N-[3,5-bis(trifluoromethyl)benzyl]-N-[6-(N′-cyclopentylmethyl-N′-ethylamino)indan-5-ylmethyl]-(1-methyl-1H-pyrazol-4-yl)amine hydrochloride], 440 nM corresponded to half-maximal inhibition (IC50). `CCN(C[C@H]1CC[C@H](CCO)CC1)c1ccc(OC(F)(F)F)cc1CN(Cc1cc(C(F)(F)F)cc(C(F)(F)F)c1)c1nnn(C)n1` [Example 140, trans-2-(4-{[N-(2-{[N′-[3,5-bis(trifluoromethyl)benzyl]-N′-(2-methyl-2H-tetrazol-5-yl)amino]methyl}-4-trifluoromethoxyphenyl)-N-ethylamino]methyl}cyclohexyl)ethanol hydrochloride] had an IC50 of 120 nM.

In turn, `CCN(C[C@H]1CC[C@H](C(=O)O)CC1)c1cc2c(cc1CN(Cc1cc(C(F)(F)F)cc(C(F)(F)F)c1)c1nnn(C)n1)CCCC2` [Example 67, trans-4-{[N-(3-{[N′-[3,5-bis(trifluoromethyl)benzyl]-N′-(2-methyl-2H-tetrazol-5-yl)amino]methyl}-5,6,7,8-tetrahydronaphthalen-2-yl)-N-ethylamino]methyl}cyclohexanecarboxylic acid hydrochloride] displayed an IC50 of 260 nM. This IC50 lies about 2.2-fold higher than the previous one. Under `CCN(C[C@H]1CC[C@H](C(=O)O)CC1)c1cc2c(cc1CN(Cc1cc(C#N)cc(C(F)(F)F)c1)c1cc(C)no1)CCCC2` [Example 72, trans-4-{[N-(3-{[N′-(3-cyano-5-trifluoromethylbenzyl)-N′-(3-methylisoxazol-5-yl)amino]methyl}-5,6,7,8-tetrahydronaphthalen-2-yl)-N-ethylamino]methyl}cyclohexanecarboxylic acid hydrochloride] stands 390 nM; under `CCN(C[C@H]1CC[C@H](C(=O)OC)CC1)c1cc2c(cc1CN(Cc1cc(C#N)cc(C(F)(F)F)c1)c1ccn(C)n1)CCCC2` [Example 43, methyl trans-4-{[N-(3-{[N′-(3-cyano-5-trifluoromethylbenzyl)-N′-(1-methyl-1H-pyrazol-3-yl)amino]methyl}-5,6,7,8-tetrahydronaphthalen-2-yl)-N-ethylamino]methyl}cyclohexanecarboxylate hydrochloride], 550 nM.

With `CCN(CC(C)(C)CCC(=O)O)c1cc2c(cc1CN(Cc1cc(C(F)(F)F)cc(C(F)(F)F)c1)c1nnn(C)n1)CCC2` [Example 114, 5-[N-(6-{[N′-[3,5-bis(trifluoromethyl)benzyl]-N′-(2-methyl-2H-tetrazol-5-yl)amino]methyl}indan-5-yl)-N-ethylamino]-4,4-dimethylpentanoic acid hydrochloride], half-maximal inhibition (IC50) was put at 280 nM. Under `CCN(CCC(C)(C)CC(=O)O)c1ccc(C(F)(F)F)cc1CN(Cc1cc(C(F)(F)F)cc(C(F)(F)F)c1)c1nnn(C)n1` [Example 105, 5-[N-(2-{[N′-[3,5-bis(trifluoromethyl)benzyl]-N′-(2-methyl-2H-tetrazol-5-yl)amino]methyl}-4-trifluoromethylphenyl)-N-ethylamino]-3,3-dimethylpentanoic acid hydrochloride] stands 600 nM; under `CCN(CC1CCCC1)c1cc2c(cc1CN(Cc1cc(C(F)(F)F)cc(C(F)(F)F)c1)c1noc(C)n1)CCC2` [Example 46, N-[3,5-bis(trifluoromethyl)benzyl]-N-[6-(N′-cyclopentylmethyl-N′-ethylamino)indan-5-ylmethyl]-(5-methyl-[1,2,4]oxadiazol-3-yl)amine hydrochloride], 390 nM; under `CCN(CCCCC(=O)OC)c1cc2c(cc1CN(Cc1cc(C#N)cc(C(F)(F)F)c1)c1ccn(C)n1)CCC2` [Example 55, methyl 5-[N-(6-{[N′-(3-cyano-5-trifluoromethylbenzyl)-N′-(1-methyl-1H-pyrazol-3-yl)amino]methyl}indan-5-yl)-N-ethylamino]pentanoate hydrochloride], 770 nM. Under `CCN(CCCCC(=O)O)c1cc2c(cc1CN(Cc1cc(C#N)cc(C(F)(F)F)c1)c1ccn(C)n1)CCCC2` [Example 66, 5-[N-(3-{[N′-(3-cyano-5-trifluoromethylbenzyl)-N′-(1-methyl-1H-pyrazol-3-yl)amino]methyl}-5,6,7,8-tetrahydronaphthalen-2-yl)-N-ethylamino]pentanoic acid hydrochloride] stands 870 nM. Under `CCN(C[C@H]1CC[C@H](C(=O)O)CC1)c1cc2c(cc1CN(Cc1cc(C(F)(F)F)cc(C(F)(F)F)c1)c1nnn(CC)n1)CCC2` [Example 93, trans-4-{[N-(6-{[N′-[3,5-bis(trifluoromethyl)benzyl]-N′-(2-ethyl-2H-tetrazol-5-yl)amino]methyl}indan-5-yl)-N-ethylamino]methyl}cyclohexanecarboxylic acid hydrochloride] stands 760 nM. In turn, `CCN(C[C@H]1CC[C@H](CC(=O)O)CC1)c1cc2c(cc1CN(Cc1cc(C(F)(F)F)cc(C(F)(F)F)c1)c1nnn(C)n1)OC(F)(F)C(F)(F)O2` [Example 137, trans-(4-{[N-(7-{[N′-[3,5-bis(trifluoromethyl)benzyl]-N′-(2-methyl-2H-tetrazol-5-yl)amino]methyl}-2,2,3,3-tetrafluoro-2,3-dihydrobenzo[1,4]dioxin-6-yl)-N-ethylamino]methyl}cyclohexyl)acetic acid hydrochloride] displayed an IC50 of 140 nM. Under `CCN(C[C@H]1CC[C@H](CO)CC1)c1cc(C(F)(F)F)c(C)cc1CN(Cc1cc(C(F)(F)F)cc(C(F)(F)F)c1)c1nnn(C)n1` [Example 141, trans-(4-{[N-(2-{[N′-[3,5-bis(trifluoromethyl)benzyl]-N′-(2-methyl-2H-tetrazol-5-yl)amino]methyl}-4-methyl-5-trifluoromethylphenyl)-N-ethylamino]methyl}cyclohexyl)methanol hydrochloride] stands 120 nM. Under `CCN(CCCCC(=O)OC)c1cc2c(cc1CN(Cc1cc(C#N)cc(C(F)(F)F)c1)c1ncn(C)n1)CCCC2` [Example 75, methyl 5-[N-(3-{[N′-(3-cyano-5-trifluoromethylbenzyl)-N′-(1-methyl-1H-[1,2,4]triazol-3-yl)amino]methyl}-5,6,7,8-tetrahydronaphthalen-2-yl)-N-ethylamino]pentanoate hydrochloride] stands 410 nM; under `CCN(C[C@H]1CC[C@H](C(=O)O)CC1)c1cc2c(cc1CN(Cc1cc(C#N)cc(C(F)(F)F)c1)c1ccn(C)n1)CCCC2` [Example 45, trans-4-{[N-(3-{[N′-(3-cyano-5-trifluoromethylbenzyl)-N′-(1-methyl-1H-pyrazol-3-yl)amino]methyl}-5,6,7,8-tetrahydronaphthalen-2-yl)-N-ethylamino]methyl}cyclohexanecarboxylic acid hydrochloride], 490 nM; under `CCN(CC1CCCC1)c1cc2c(cc1CN(Cc1cc(C(F)(F)F)cc(C(F)(F)F)c1)c1nnn(CC)n1)CCC2` [Example 11, N-[3,5-bis(trifluoromethyl)benzyl]-N-[6-(N′-cyclopentylmethyl-N′-ethylamino)indan-5-ylmethyl]-(2-ethyl-2H-tetrazol-5-yl)amine], 630 nM.

Turning to `CCN(CC1CCCC1)c1cc2c(cc1CN(Cc1cc(C(F)(F)F)cc(C(F)(F)F)c1)c1nnn(C)n1)CCC2` [Example 3, N-[3,5-bis(trifluoromethyl)benzyl]-N-[6-(N′-cyclopentylmethyl-N′-ethylamino)indan-5-ylmethyl]-(2-methyl-2H-tetrazol-5-yl)amine], half-maximal inhibition (IC50) was put at 240 nM. Against the preceding molecule, the IC50 is about 2.6-fold lower.

Molecule `CCN(CCCCC(=O)O)c1cc2c(cc1CN(Cc1cc(C(F)(F)F)cc(C(F)(F)F)c1)c1ccn(C)n1)CCCC2` [Example 65, 5-[N-(3-{[N′-[3,5-bis(trifluoromethyl)benzyl]-N′-(1-methyl-1H-pyrazol-3-yl)amino]methyl}-5,6,7,8-tetrahydronaphthalen-2-yl)-N-ethylamino]pentanoic acid hydrochloride] came in with an IC50 of 290 nM. Under `CCN(C[C@H]1CC[C@H](C(=O)OC)CC1)c1cc2c(cc1CN(Cc1cc(C(F)(F)F)cc(C(F)(F)F)c1)c1ccn(C)n1)CCCC2` [Example 42, methyl trans-4-{[N-(3-{[N′-[3,5-bis(trifluoromethyl)benzyl]-N′-(1-methyl-1H-pyrazol-3-yl)amino]methyl}-5,6,7,8-tetrahydronaphthalen-2-yl)-N-ethylamino]methyl}cyclohexanecarboxylate hydrochloride] stands 700 nM. With “trans-4-{[N-(6-{[N′-(3-cyano-5-trifluoromethylbenzyl)-N′-(3-methylisoxazol-5-yl)amino]methyl}indan-5-yl)-N-ethylamino]methyl}cyclohexanecarboxylic acid hydrochloride [Example 54]”, inhibition was half-maximal at 790 nM (IC50). In the case of `CCN(CCCCC(=O)O)c1cc2c(cc1CN(Cc1cc(C#N)cc(C(F)(F)F)c1)c1ncn(C)n1)CCCC2` [Example 77, 5-[N-(3-{[N′-(3-cyano-5-trifluoromethylbenzyl)-N′-(1-methyl-1H-[1,2,4]triazol-3-yl)amino]methyl}-5,6,7,8-tetrahydronaphthalen-2-yl)-N-ethylamino]pentanoic acid hydrochloride] it was 540 nM.
